Source: US12377092B2, “Polycomb inhibitors and uses thereof” (FONDAZIONE ISTITUTO FIRC DI ONCOLOGIA MOLECOLARE (IFOM), priority 2017, dated 2025)
“Also recorded” adds a separate entry of the source.

Assays:
[1] = test system: EndMT markers (Klf4, Sca1 and Fsp1); test: Western blot analysis of EndMT markers, wild type and CCM3 knock out immortalized lung endothelial cells; type: cell-based, mouse; details: 72 hours
Procedure: Cells were seeded 6.3×10^4 cells/cm^2. The day after, PTC209 and UNC1999 were added to the confluent cells. Drugs were left for one or three days depending on the aim of the experiment. Final concentrations used for the two drugs were: 1 uM PTC209 and 5 uM UNC1999.
Confluent cells were lysed with boiling modified Laemi sample Buffer (2% SDS, 20% glycerol, and 125 mM Tris-HCl, pH 6.8). Lysates were incubated for 10 minutes at 100° C. to allow proteins denaturation. Protein concentration was estimated using the BCA Protein Assay Kit (Pierce). Equal amount of proteins was loaded on a gel, separated by SDS-PAGE and transferred to a Protran Nitrocellulose Membrane (Whatman) 0.2 um pores. The membranes were blocked for 1 hour at RT in Tris Buffered Saline (TBS: NaCl 150 mM, Tris-HCl 10 mM pH 7.4) plus 0.1% Tween-20 containing 5% BSA or milk. The membranes were incubated with primary antibodies diluted in TBST (TBS plus 0.1% Tween-20) containing 5% of either BSA or milk overnight at 4° C. Next, membranes were rinsed three times with TBST for 5 minutes each and incubated for 45 minutes at RT with HRP-linked secondary antibodies diluted in TBST containing 5% BSA/milk. Membranes were rinsed three times with TBST for 5 minutes each and specific bindings were detected by enhanced chemiluminescence (ECL) system (Amersham Bioscience) using ChemiDoc XRS gel imaging system (Bio-Rad).
Wild type and CCM3 knock out cells were treated with either PTC209 or DMSO starting from the day after seeding, when cells were confluent. For this experiment cells were lysed for western blot and real-time analysis after 72 hours of treatment to check a long-term effect of PTC209.
To perform these experiments, immortalized lung endothelial cells both wild type and CCM3 knock out were treated, with the same experimental strategy used for PTC209, with UNC1999 for 72 hours and subsequently lysed for western blot and real time analysis. UNC1999 was used in its specific optimal concentration, which was different to PTC209. As control DMSO was given to the cells in a volume equal to the volume of DMSO in which UNC1999 was previously dissolved to rich the optimal concentration.
Briefly, wild type and CCM3 knock out cells were treated with either PTC209, UNC1999 or a combination of the two. PTC209 and UNC1999 were administrated at the same concentration used for the single treatment and DMSO was given as control in a volume equal to the sum of volumes of DMSO in which UNC1999 and PTC209 were previously dissolved.

[2] = test system: Axin2, Serpin1, Id1, Hes1 and Dll4; test: Real-time PCR of target genes of β-catenin, TGFβ and Delta-Notch pathways, wild type and CCM3 knock out cells; type: cell-based, mouse; details: PTC209 72 hours
Procedure: RNA extraction was performed both with (A) RNeasy kits (Promega) or (B) RNAeasy Mini Kit (QIAGEN). The latter allows also the extraction of proteins from the same sample. The RNA (500 ng) was reverse transcribed with random hexamers (High Capacity cDNA Archive kits; Applied Biosystems) in a final volume of 30 uL. Reaction were made with a thermocycler (Eppendorf) 10 min at 25° C. followed by 2 hours at 37° C. cDNA (5 ng) was amplified in triplicate in a reaction volume of 15 uL using TaqMan Gene Expression Assays (Applied Biosystems) in a ABI/Prism 7900 HT using a pre PCR step of 10 min at 95° C., followed by 40 cycles of 15 seconds at 95° C. and 60 seconds at 60° C. For each sample, the expression level was determined with the comparative threshold cycle (Ct) method, and normalized to the housekeeping genes encoding 18S, glyceraldehyde-3-phosphate dehydrogenase (GAPDH) and hypoxanthine-guanine phosphoribosyltransferase (hprt1). Ct or threshold cycle, represents the PCR cycle at which an increase in reporter fluorescence above a base-line signal can first be detect.
To perform these experiments, wild type and CCM3 knock out cells were treated with PTC209 with the same experimental conditions described before, and subsequently lysed for gene expression analysis.
Axin2 was checked as evidence of β-catenin pathway activation (FIG. 25A), Serpin1 and Id1 for TGFβ signalling (FIG. 25B), while Hes1 and Dll4 for Notch pathway activation (FIG. 25C).

[3] = CCM3 knock out cells (pathological conditions)
[4] = CCM3 knock out cells (pathological)
[5] = wild type cells (physiological)

For COc1cc(Br)c(Nc2nc(-c3c(C)nc4ncccn34)cs2)c(Br)c1 [PTC209, N-(2,6-dibromo-4-methoxyphenyl)-4-(2-methylimidazo[1,2-a]pyrimidin-3-yl)thiazol-2-amine], the “Klf4 protein up-regulation induced by CCM3 deletion (western blot)” value ([1]; CCM3 knock out cells) was “completely rescued”, the “levels of Klf4 and Sca1 protein in treated CCM3 knock out cells versus wild type cells” value ([1]; CCM3 knock out cells, 1 uM PTC209) was “comparable with the levels expressed by wild type cells” and the “EndMT markers (Klf4, Sca1, Fsp1) protein expression (western blot)” value ([1]; CCM3 knock out cells, 1 uM PTC209, 5 uM UNC1999, vs DMSO) was “strongly downregulated; also recorded: inhibition of the upregulation”. The “Klf4 protein (western blot)” value ([1]; wild type cells (physiological condition), CCM3 model) was “not affected”, the “Hes1 transcript (Notch pathway)” value [2, 3] was “downregulated” and the “Serpin1 transcript (TGFβ signalling)” value [2, 3] was “upregulated”. The “Axin2 transcript (β-catenin pathway)” value [2, 4] was “downregulation”, the “Id1 transcript (TGFβ signalling)” value [2, 4] was “downregulation” and the “Axin2 transcript (β-catenin pathway)” value [2, 5] was “downregulation”. The “Id1 transcript (TGFβ signalling)” value [2, 5] was “downregulation”.
